Active and inactive are the calls of the source.
Tests used:
Leucine aminopeptidase = biological target: T1, Leucine aminopeptidase (Plasmodium falciparum 3D7, UniProt Q8IL11); assay: P. falciparum M17LAP inhibitors, primary screen, biochemical, fluorogenic H-Leu-NHMec substrate, 1536-well (AID 1619); assay type: functional
T1 sequence (Q8IL11 whole entry): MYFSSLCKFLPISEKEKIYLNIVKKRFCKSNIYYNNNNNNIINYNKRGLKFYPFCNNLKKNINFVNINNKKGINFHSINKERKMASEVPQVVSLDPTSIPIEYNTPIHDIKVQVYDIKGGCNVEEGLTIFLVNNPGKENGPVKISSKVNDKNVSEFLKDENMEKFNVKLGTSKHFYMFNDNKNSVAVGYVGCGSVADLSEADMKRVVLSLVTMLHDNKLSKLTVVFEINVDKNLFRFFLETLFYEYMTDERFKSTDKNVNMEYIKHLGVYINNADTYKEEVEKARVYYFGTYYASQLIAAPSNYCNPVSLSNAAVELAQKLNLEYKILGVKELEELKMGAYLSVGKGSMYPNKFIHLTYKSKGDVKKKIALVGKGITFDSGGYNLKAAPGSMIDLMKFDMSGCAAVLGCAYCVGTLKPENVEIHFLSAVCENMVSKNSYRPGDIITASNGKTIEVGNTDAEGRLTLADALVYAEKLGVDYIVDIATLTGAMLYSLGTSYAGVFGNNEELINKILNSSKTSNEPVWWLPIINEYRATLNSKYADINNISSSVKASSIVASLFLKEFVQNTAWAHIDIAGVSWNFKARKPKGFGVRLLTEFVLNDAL

[1] = biological target: Heat shock protein HSP 90-alpha (Homo sapiens, UniProt P07900); assay type: functional, organism-based
HEK293 = assay: inhibitors of LMP1-driven NF-kB reporter, dose response, cell-based, HEK293, luciferase, cherry-pick (AID 588343); assay type: functional; details: Homo sapiens
[2] = biological target: T2, Microphthalmia-associated transcription factor (Homo sapiens, UniProt O75030); assay: TRPM1 promoter luciferase signal decrease, dose response, MITF inhibitor project, cell-based, SK-MEL-5, cherry-picked, set 3 (AID 493073); assay type: functional
T2 sequence (O75030 whole entry): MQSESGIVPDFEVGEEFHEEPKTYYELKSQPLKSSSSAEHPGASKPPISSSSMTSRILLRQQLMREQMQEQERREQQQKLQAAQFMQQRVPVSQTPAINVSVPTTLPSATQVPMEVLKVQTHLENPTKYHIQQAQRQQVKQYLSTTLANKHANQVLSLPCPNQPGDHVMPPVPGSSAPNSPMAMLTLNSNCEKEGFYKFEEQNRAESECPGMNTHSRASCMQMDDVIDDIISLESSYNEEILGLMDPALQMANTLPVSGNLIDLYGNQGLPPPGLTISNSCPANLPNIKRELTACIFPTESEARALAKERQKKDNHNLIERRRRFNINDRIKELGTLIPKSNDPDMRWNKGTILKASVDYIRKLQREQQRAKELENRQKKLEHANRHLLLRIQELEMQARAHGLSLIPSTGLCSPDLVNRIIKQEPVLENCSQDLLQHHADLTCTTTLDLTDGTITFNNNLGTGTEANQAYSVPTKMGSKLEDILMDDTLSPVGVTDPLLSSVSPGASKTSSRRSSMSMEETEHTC

[3] = biological target: T3, Heat shock factor protein 1 (Mus musculus, UniProt P38532); assay: HSF1 potentiators in luciferase reporter cells, confirmation, cell-based, NIH3T3, luminescence, dose retest (AID 435004); assay type: functional;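 further: stress induced by proteasome inhibitor MG132 added 30 min after compound; luciferase reporter driven by HSF1 response element in NIH3T3 cells; actives raise luminescence as potentiators of the MG132 stress response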
T3 sequence (P38532 whole entry): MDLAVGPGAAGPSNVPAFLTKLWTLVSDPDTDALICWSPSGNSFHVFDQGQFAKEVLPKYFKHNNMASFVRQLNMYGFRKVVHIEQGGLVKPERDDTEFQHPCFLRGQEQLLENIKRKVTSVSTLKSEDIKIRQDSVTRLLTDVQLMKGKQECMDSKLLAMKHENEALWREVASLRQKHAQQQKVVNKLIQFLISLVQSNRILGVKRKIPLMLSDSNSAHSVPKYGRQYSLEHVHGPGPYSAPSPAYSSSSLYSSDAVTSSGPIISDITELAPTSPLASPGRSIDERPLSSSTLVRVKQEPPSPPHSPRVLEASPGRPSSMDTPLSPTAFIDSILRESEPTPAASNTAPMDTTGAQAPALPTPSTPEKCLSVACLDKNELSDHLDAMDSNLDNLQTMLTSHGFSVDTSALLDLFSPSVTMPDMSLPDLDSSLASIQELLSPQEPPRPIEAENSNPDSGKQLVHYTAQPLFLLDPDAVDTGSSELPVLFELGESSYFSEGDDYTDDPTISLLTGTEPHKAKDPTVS

Protein RecA = biological target: T4, Protein RecA (Mycobacterium tuberculosis, UniProt P9WHJ3); assay: Fluorescence Cell-Free Homogeneous Dose Retest to Identify Inhibitors of RecA-Intein Splicing Activity. [Related pubchem assays (depositor defined):AID2097, AID2223, AID489010, AID492950]; assay type: functional
T4 sequence (P9WHJ3 whole entry): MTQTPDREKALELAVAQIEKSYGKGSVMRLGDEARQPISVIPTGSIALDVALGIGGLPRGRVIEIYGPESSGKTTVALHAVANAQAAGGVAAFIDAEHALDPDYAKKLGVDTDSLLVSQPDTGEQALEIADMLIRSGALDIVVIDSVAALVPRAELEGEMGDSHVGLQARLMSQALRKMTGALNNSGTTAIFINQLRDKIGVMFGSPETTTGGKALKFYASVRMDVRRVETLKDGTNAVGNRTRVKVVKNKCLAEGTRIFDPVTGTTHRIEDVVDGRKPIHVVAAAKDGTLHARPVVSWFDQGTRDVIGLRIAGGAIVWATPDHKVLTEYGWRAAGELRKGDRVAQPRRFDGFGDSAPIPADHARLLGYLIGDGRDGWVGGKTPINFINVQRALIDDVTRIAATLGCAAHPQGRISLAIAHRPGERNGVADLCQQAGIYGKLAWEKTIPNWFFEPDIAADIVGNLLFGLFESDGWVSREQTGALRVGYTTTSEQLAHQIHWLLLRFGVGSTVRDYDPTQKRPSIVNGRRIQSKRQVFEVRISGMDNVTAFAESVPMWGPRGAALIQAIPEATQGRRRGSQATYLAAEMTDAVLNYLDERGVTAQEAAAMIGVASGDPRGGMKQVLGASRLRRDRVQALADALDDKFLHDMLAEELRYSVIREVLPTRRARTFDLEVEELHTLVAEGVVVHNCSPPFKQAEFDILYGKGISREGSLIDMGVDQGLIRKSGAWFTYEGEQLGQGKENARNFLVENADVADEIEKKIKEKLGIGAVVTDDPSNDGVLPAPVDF

[4] = biological target: T5, Replicative DNA helicase DnaB (Mycobacterium tuberculosis, UniProt P9WMR3); assay: DnaB intein splicing inhibitors, dose response, biochemical, cell-free fluorescence (AID 449749); assay type: functional
T5 sequence (P9WMR3 whole entry): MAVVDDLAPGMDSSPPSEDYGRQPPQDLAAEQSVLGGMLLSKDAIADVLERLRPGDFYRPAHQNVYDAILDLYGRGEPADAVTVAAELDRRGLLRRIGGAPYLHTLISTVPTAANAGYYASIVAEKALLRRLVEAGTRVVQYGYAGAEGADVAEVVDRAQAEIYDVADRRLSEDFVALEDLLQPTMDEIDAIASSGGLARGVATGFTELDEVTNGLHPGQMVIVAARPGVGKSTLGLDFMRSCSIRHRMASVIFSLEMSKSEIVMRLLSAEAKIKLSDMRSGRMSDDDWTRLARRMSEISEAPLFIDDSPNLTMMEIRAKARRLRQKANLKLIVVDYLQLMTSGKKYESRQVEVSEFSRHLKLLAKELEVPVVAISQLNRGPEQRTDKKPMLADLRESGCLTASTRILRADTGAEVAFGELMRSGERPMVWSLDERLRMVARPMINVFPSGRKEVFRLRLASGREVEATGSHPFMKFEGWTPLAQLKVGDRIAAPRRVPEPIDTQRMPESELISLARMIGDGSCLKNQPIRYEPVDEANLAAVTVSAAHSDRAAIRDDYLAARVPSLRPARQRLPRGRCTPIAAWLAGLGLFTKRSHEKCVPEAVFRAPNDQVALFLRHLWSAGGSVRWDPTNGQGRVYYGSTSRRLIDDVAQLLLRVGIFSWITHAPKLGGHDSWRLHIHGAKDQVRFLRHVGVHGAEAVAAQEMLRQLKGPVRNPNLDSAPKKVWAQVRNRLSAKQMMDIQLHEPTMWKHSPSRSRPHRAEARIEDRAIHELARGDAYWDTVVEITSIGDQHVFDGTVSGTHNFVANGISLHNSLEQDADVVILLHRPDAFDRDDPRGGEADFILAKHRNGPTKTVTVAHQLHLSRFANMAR

[5] = cytotoxicity toward NIH3T3 fibroblasts, dose response, counter-screen, cell-based, ATP luminescence, mouse fibroblasts (AID 2010); assay type: functional;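 further: cells exposed to compound for about 90 hours before reading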
[6] = Shn3 3'UTR reporter inhibitors, dose response, cell-based, Clone20 osteoblasts, firefly luciferase, cherry-picked (AID 624132); assay type: functional;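 further: firefly luciferase luminescence from reporter carrying the Shn3 3'UTR in osteoblasts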
[7] = HepG2 cell cytotoxicity, dose response, cytotoxicity control for Shn3 inhibitor project, CellTiter-Glo, cherry-picked (AID 624134); assay type: functional, cell-based
[8] = inhibitors of intracellular T. cruzi replication, confirmation, NIH3T3 host cells, beta-gal luminescence (AID 2044); assay type: functional, cell-based;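 further: intracellular parasites grown in NIH/3T3 mouse fibroblasts as host cells; luminescent beta-galactosidase reporter signal from transgenic T. cruzi replicating inside host cells; inhibitors lower the luminescence signal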
[9] = control 3'UTR Renilla luciferase suppression, dose response, counter-screen for Shn3 inhibitor project, cell-based, Clone20-Shn3RL, cherry-picked (AID 624133); assay type: functional
[10] = ZM109 Env clade C HIV-1 fusion inhibitors, dose response, HeLa effector, CEM target cells, luciferase, cherry-pick (AID 652058); assay type: functional, cell-based
[11] = inhibitors of HIV Env-driven cell fusion, dose response, cherry-pick (AID 652057); assay type: functional, cell-based
[12] = inhibitors of clade B AD8 Env fusion, dose response, cell-based, cherry-pick (AID 652062); assay type: functional;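 further: luciferase signal from cell-cell fusion driven by HIV-1 clade B AD8 Env; potency is for inhibitors of fusion seen as a drop in luminescence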
P388/ADR = assay: cells; assay type: functional; details: Mus musculus
P388 = assay: cells; assay type: functional; details: Mus musculus
SN12K1 = assay: cells; assay type: functional; details: Homo sapiens
[13] = Luminescence Cell-Based Dose Retest to Confirm Inhibitors of Cancer Stem Cells. [Related pubchem assays (depositor defined):AID2717, AID2721]; assay type: functional; details: Homo sapiens

O=S(=O)(Nc1nc2ccccc2nc1NCCN1CCOCC1)c1cccc(Cl)c1
IC50 (Leucine aminopeptidase): 25.9 µM (active)

c1ccc(C(=NNc2nc3ccccc3s2)c2ccccn2)cc1
AC50 [1]: 16.4 µM (active)
AC50 (HEK293): 3.05 µM (active)

O=C(CCl)Nc1cccc(Oc2ccccc2)c1
AC50 [2]: 8.07 µM (active)
EC50 [3]: > 260 µM (inactive)
EC50 (Protein RecA): 4.28 µM (active)
AC50 [4]: 11.9 µM (active)

O=c1c2cnn(-c3ccccc3)c2nc(-c2cccs2)n1-c1ccc(Br)cc1
AC50 (HEK293): 1.77 µM (active)

Oc1nc(Nc2nc3ccccc3o2)nc2c1CCCC2
EC50 [5]: 3.87 µM (active)
AC50 [6]: 7.71 µM (active)
AC50 [7]: 9.63 µM (active)
EC50 [8]: 1.9 µM (active)
AC50 (HEK293): 2.05 µM (active)
AC50 [9]: 5.26 µM (active)

C[C@H](CO)N1C[C@H](C)[C@H](CN(C)S(=O)(=O)c2ccccc2)Oc2ncc(/C=C/c3ccccc3)cc2C1=O
AC50 [10]: 3.51 µM (active)

COc1cccc(-c2cnc3c(c2)C(=O)N([C@H](C)CO)C[C@H](C)[C@H](CN(C)C(=O)Nc2cccc4ccccc24)O3)c1
AC50 [11]: < 0.26 µM (active)
AC50 [12]: 0.407 µM (active)
AC50 [10]: 0.284 µM (active)

O=c1[nH]c2ccc(S(=O)(=O)N3CCN(Cc4ccccc4)CC3)cc2[nH]c1=O
IC50 (Leucine aminopeptidase): 2.62 µM (active)

C[C@H](CO)N1C[C@H](C)[C@H](CN(C)S(=O)(=O)c2ccccc2)Oc2ccc(NS(=O)(=O)c3cccs3)cc2CC1=O
AC50 [11]: 0.557 µM (active)
AC50 [12]: 12.6 µM (active)
AC50 [10]: 2.13 µM (active)

CSc1nc(NC2OC(CO)C(O)C(O)C2O)c(N)c(=O)[nH]1 (stereo not given)
GI50 (P388/ADR): > 100 µM (inactive)
GI50 (P388): > 100 µM (inactive)
GI50 (SN12K1): > 100 µM (inactive)

CSc1nc(CO)c(CO)n1C
GI50 (P388/ADR): > 100 µM (inactive)
GI50 (P388): > 100 µM (inactive)
GI50 (SN12K1): > 100 µM (inactive)

CNC(=O)SCC(N)C(=O)O (stereo not given)
GI50 (P388/ADR): 16.8 µM (inactive)
GI50 (P388): 16.5 µM (inactive)
GI50 (SN12K1): 62.2 µM (inactive)

CC(=O)Oc1cc2c(cc1OC(C)=O)OCC(c1ccccc1)C2 (stereo not given)
GI50 (P388/ADR): 4.08 µM (inactive)
GI50 (P388): 4.16 µM (inactive)
GI50 (SN12K1): 13.6 µM (inactive)

COc1ccc(Cc2nnc(NS(=O)(=O)Cc3ccccc3)s2)cc1
IC50 (Leucine aminopeptidase): 6.34 µM (active)

COc1ccc2c(c1O)-c1cc(O)cc3c1[C@@H](C2)N(C)CC3
GI50 (P388/ADR): 40.2 µM (inactive)
GI50 (P388): 9.1 µM (inactive)
GI50 (SN12K1): 63.4 µM (inactive)

c1ccc2c(c1)OCCc1cn[nH]c1-2
GI50 (P388/ADR): > 100 µM (inactive)
GI50 (P388): > 100 µM (inactive)
GI50 (SN12K1): > 100 µM (inactive)

Cc1ccccc1NC(=O)C(Cl)=C(Cl)Cl
AC50 [13]: 6.73 µM (active)
AC50 (HEK293): 22.1 µM (active)

C[C@H](CO)N1C[C@H](C)[C@H](CN(C)CC2CC2)Oc2ccc(NC(=O)Nc3ccc4c(c3)OCO4)cc2CC1=O
AC50 [11]: 4.41 µM (active)
AC50 [12]: 20.5 µM (active)

Nc1cccc2c1C1=NNC(=O)CC1C2 (stereo not given)
GI50 (P388): > 100 µM (inactive)
GI50 (SN12K1): > 100 µM (inactive)

COc1ccc(CNC(=O)N(C)C[C@H]2OCc3ccccc3-c3ccccc3C(=O)N([C@H](C)CO)C[C@@H]2C)cc1
AC50 [11]: 0.826 µM (active)
AC50 [12]: 3.51 µM (active)
AC50 [10]: 1.16 µM (active)

— ChEMBL document CHEMBL1201862, “PubChem BioAssay data set” (2004)
